Test results taken from publication PMC5321741, “Arylmethylamino steroids as antiparasitic agents” (Nature Communications, 2017).
Where two headings read alike, the source gives them in different places.

Key:
HUVEC = experiment: antiproliferative activity on HUVEC cells; type: cell-based; conditions: 72 h
Protocol: (§1) Compounds were tested for their antiproliferative activity on HUVEC and K-562 cells and for cytotoxicity on HeLa cells using standard protocols. K-562 (DSM ACC 10), HUVEC (ATCC CRL-1730), and HeLa (DSM ACC 57) cells were cultured as described previously. To assay the antiproliferative and cytotoxic effect, procedures were carried out as described before. In brief, for each experiment with K-562 and HeLa ∼10,000 cells were seeded per well of the 96-well microplates. For the cytotoxicity assay, the HeLa cells were preincubated for 48 h without the test substances. Cells were incubated for 72 h at 37 °C in a humidified atmosphere and 5% CO2. Suspension cultures of K-562 in microplates were analysed by an electronic cell analyzer system CASY 1 (SCHÄRFE, Reutlingen, Germany). The monolayer of the HUVEC and HeLa cells were fixed by glutaraldehyde (MERCK) and stained with a 0.05% solution of methylene blue (SERVA). After gently washing, the stain was eluted by 0.2 ml of 0.33 N HCl in the wells. The optical densities were measured at 660 nm in a microplate reader. The calculations of the different values of GI50 and CC50 were performed with the software Magellan (TECAN).

[1] = tested on: P. falciparum (strain 3D7); experiment: 72 h 3H-hypoxanthine incorporation assay, asexual blood stages; type: cell-based, Plasmodium falciparum; conditions: 72 h 3H-hypoxanthine incorporation, asexual blood stages; read-out: Antiplasmodial activity IC50 Pf (3D7)
K-562 = experiment: antiproliferative activity on K-562 cells; type: cell-based; conditions: 72 h
Protocol: as §1

HeLa = experiment: cytotoxicity on HeLa cells; type: cell-based; conditions: 72 h
Protocol: as §1

[2] = tested on: Bacillus subtilis JMRC:STI:10880; experiment: agar diffusion inhibition zone test; type: cell-based; conditions: Bacillus subtilis; 1o, 2o 1,000 µg/ml in DMSO; ciprofloxacin 5 µg/ml; solvent DMSO 12P; read-out: inhibition zone diameter, Bacillus subtilis (B1)
Protocol: (§2) The following organisms were tested at the Hans Knöll Institute in Jena, for their susceptibility to the compounds 1o and 2o: Bacillus subtilis JMRC:STI:10880, Staphylococcus aureus JMRC:ST:10760, Escherichia coli JMRC:ST:33699, Pseudomonas aeruginosa JMRC:ST:33772, Pseudomonas aeruginosa JMRC:ST:337721, Staphylococcus aureus JMRC:ST:33793 (multi-resistant), Enterococcus faecalis JMRC:ST:33700 (Vancomycin-resistant), Mycobacterium vaccae JMRC:STI:10670, Sporobolomyces salmonicolor (Basidiomycetes yeast) JMRC:ST:35974, Candida albicans (Ascomycetes yeast) JMRC:STI:25000, Penicillium notatum JMRC:STI:50164.
(§3) The bacteria were propagated in Mueller Hinton Broth (Oxoid)[49]. Yeast was propagated in YPD (yeast extract peptone dextrose): 1% yeast extract, 10 g; 2% peptone, 20 g; 2% agar, 20 g; 2% dextrose (glucose), 20 g; Sigma-Y1375. All bacteria and yeast suspensions were freshly made. The cultures were incubated at 37 °C for 16 h. Afterwards, the bacteria concentration from each culture was determined, and 34 ml of nutrient agar was loaded with 10^7 cells. These cultures were stored at 6-8 °C and could be used for seven days for the preparation of test plates. 34 ml of nutrient agar was liquefied and inoculated with the calculated amount of inoculum bacteria suspension at 48–50 °C, a temperature suitable for vegetative forms of bacteria. The inoculated nutrient media (34 ml each) were immediately poured into the prepared test plates (3 mm layer). With a punching device, 12 holes per test plate were punched out. For inhibiting bacterial growth, ciprofloxacin was used as a reference substance. The test substances were dissolved in distilled water, and 5 μg ml^−1 and 50 μl was added to each bacterial culture. For inhibition of fungal growth, amphotericin B served as the reference substance. The test substances were diluted to 10 μg ml^−1 in DMSO/methanol; 50 μl was added to each culture.
(§4) Configuring the test plate; volumes/punched hole: 50 μl; test solutions/test plate: 1 × 50 μl reference substance. Test plates were cultivated for 18 h at 37 °C. Analysis: Reading the inhibition zones (IZ): As IZ, the zone in which no growth can be determined with the naked eye is measured; the tiniest colonies on the edge of the inhibition zone were therefore not taken into consideration. The diameter (φ) of the IZ is measured in mm. The analysis of IZ φ is carried out internationally with the help of statistic procedures, especially regression analysis. With each test approach, the reference substance was brought along as a control; if there were deviations from allowed IZ φ, the test was repeated.
(§5) The inhibition of bacterial growth was determined using bacterial cultures grown in Müller-Hinton Bouillon, which was configured at barely visible opacity with the McFarland Standard Nr. 0.5, which indicates a bacterial density of 10^8 ml^−1. This bacterial suspension was diluted with Müller-Hinton Bouillon using 2-fold dilution series in the agar diffusion test.
(§6) Analysis: The growth in the inhibition zones around the holes containing active substances is thereby compared with the growth in the growth control (no active substance). Bacterial growth was determined according to four measurements: p=presence of colonies in the inhibition zone, P=presence of many colonies in the inhibition zone, A=indication of inhibition, F=facilitation.

[3] = tested on: Enterococcus faecalis JMRC:ST:33700 (Vancomycin-resistant); experiment: agar diffusion inhibition zone test; type: cell-based; conditions: 1o, 2o 1,000 µg/ml in DMSO; ciprofloxacin 5 µg/ml; solvent DMSO 12P
Protocol: as §2, §3, §4, §5, §6

[4] = tested on: Staphylococcus aureus JMRC:ST:10760; experiment: agar diffusion inhibition zone test; type: cell-based; conditions: Staphylococcus aureus; 1o, 2o 1,000 µg/ml in DMSO; ciprofloxacin 5 µg/ml; solvent DMSO 12P; read-out: inhibition zone diameter, Staphylococcus aureus (B3)
Protocol: as §2, §3, §4, §5, §6

[5] = tested on: Mycobacterium vaccae JMRC:STI:10670; experiment: agar diffusion inhibition zone test; type: cell-based; conditions: Mycolicibacterium vaccae; 1o, 2o 1,000 µg/ml in DMSO; ciprofloxacin 5 µg/ml; solvent DMSO 13P; read-out: inhibition zone diameter, Mycobac. vaccae (M4)
Protocol: as §2, §3, §4, §5, §6

[6] = tested on: Pseudomonas aeruginosa JMRC:ST:33772; experiment: agar diffusion inhibition zone test; type: cell-based; conditions: Pseudomonas aeruginosa; 1o, 2o 1,000 µg/ml in DMSO; ciprofloxacin 5 µg/ml; solvent DMSO 13P; read-out: inhibition zone diameter, Pseudomonas aeruginosa JMRC:ST:33772 (B7)
Protocol: as §2, §3, §4, §5, §6

[7] = tested on: Staphylococcus aureus JMRC:ST:33793 (multi-resistant); experiment: agar diffusion inhibition zone test; type: cell-based; conditions: Staphylococcus aureus, MRSA; 1o, 2o 1,000 µg/ml in DMSO; ciprofloxacin 5 µg/ml; solvent DMSO 12P; read-out: inhibition zone diameter, MRSA Staph. aureus (R9)
Protocol: as §2, §3, §4, §5, §6

[8] = tested on: P. falciparum (strain 3D7); conditions: same methods (72 h 3H-hypoxanthine incorporation assay); read-out: IC50 on 3D7; cited from earlier work
P. falciparum strain Dd2 = tested on: P. falciparum strain Dd2; parameters: method as in PMID 24348249; conditions: chloroquine-resistant strain Dd2; cited from earlier work
P. falciparum NF54 = experiment: IC50 speed assay; type: cell-based, Plasmodium falciparum; conditions: Plasmodium falciparum
Protocol: To assess the rapidity of growth inhibition induced by the steroid compounds, the so-called IC50 speed assay[16] was conducted for compound 1o on P. falciparum NF54 (Fig. 2a,b).

[9] = target: haem (FeIIIPPIX, π-π dimer); experiment: spectrophotometric titration of haematin π-π dimer; type: binding; conditions: absorption spectrophotometric titration, pH 7.5; read-out: Dissociation Constant KD of haematin-drug complex
haem = experiment: ESI-MS collision-induced dissociation of haem adducts; type: binding; conditions: 50 µM haem and 50 µM substrate
Protocol: Compound Molar Adduct DV50 Bottom Dissociation mass [Haem+S] (V) plateau Constant
Supplementary Table 7. ESI-MS-CID data (m/z, calculated DV50 = dissociation voltage at 50% and % bottom plateau) of the [haematin-drug]+ adducts and dissociation constants (KD, µM) of the haematin-drug complexes measured with absorption spectrophotometric titrations.
Conditions: 50 µM haem and 50 µM substrate in H2O/CH3CN (5/95) + 0.1% formic acid.
Stability responses of the haem substrate adduct were obtained via ESI-CID experiments.
Positive mode; fragmentor voltage from 20 V to 400 V with 20 V increments. […]
- 41/120 g), and complete dissolution was achieved using an ultrasonic bath. All solutions were protected from daylight to avoid any photochemical degradation. All the physiochemical measurements were carried out at 25.0(2) °C. […]
Electrospray mass spectrometric measurements stopping point
Electrospray mass spectra of the haem complexes were obtained with an Agilent Technologies 6120 quadrupole equipped with an electrospray (ESI) interface. For

[10] = tested on: P. berghei asexual stages; experiment: ex vivo drug assay (luciferase), asexual stages; type: cell-based; conditions: Plasmodium berghei; 24 h incubation, n=3; read-out: IC50 against P. berghei ex vivo
Protocol: Plates frozen at −80 °C were thawed at 37 °C. The cells were lysed at room temperature in 10 μl 1x luciferin lysis buffer (Luciferase Cell Culture Lysis 5 × reagent, Promega), and 100 μl luciferase assay substrate was added to each well (Luciferase Assay System, Promega). Luciferase activity was measured on a luminescence plate reader (Mithras LB940 luminometer, Berthold Technologies). The mean of the luciferase activity was calculated for each technical triplicate and normalized as follows: (Lucx−LucRBC)/(Lucsolvent−LucRBC) with Lucx and Lucsolvent=mean luciferase activity for parasites incubated with compound x and with solvent (DMSO for 1o and PBS for MB), respectively, and LucRBC=mean luciferase activity of non-infected red blood cells (background). IC50 values were calculated using Prism (GraphPad, log(inhibitor) versus normalized response—variable slope) in three independent experiments for the P. falciparum gametocyte assay and five for the P. berghei ex vivo drug assay.
The animal experiments described in this part were performed at the Institut de Biologie Moléculaire et Cellulaire (Strasbourg, France), using facilities and protocols adhering to national regulations of laboratory animal welfare in France. […] Parasitaemia was monitored via FACS analysis (FACSCalibur, BD Bioscience). […]

**Q.** Which GI50 (HUVEC) does the source give for `CC(C)CCCC(C)C1CCC2C3CCC4CC(O)C(NCc5ccccc5O)CC4(C)C3CCC12C` (stereo not shown) [13c] here?
**A.** 23700 nM

**Q.** And the IC50 [1]?
**A.** 465 nM

**Q.** What about the GI50 (K-562) of the same compound?
**A.** 17700 nM

**Q.** And the CC50 (HeLa)?
**A.** 85300 nM

**Q.** What does the source list for `CC(C)CCCC(C)C1CCC2C3CCC4CC(O)C(NCc5ccccc5O)CC4(C)C3CCC12C` (stereo not shown) [14c]?
**A.** GI50 (HUVEC): 6700 nM; IC50 [1]: 208 nM; GI50 (K-562): 8200 nM; CC50 (HeLa): 21800 nM

**Q.** For `O=C(O)c1cn(C2CC2)c2cc(N3CCNCC3)c(F)cc2c1=O` [Ciprofloxacin, ciprofloxacin, reference compound], which zone of inhibition at 5 µg/mL [2] is on record?
**A.** 31 mm

**Q.** And the inhibition zone diameter, VRSA Enteroc. faecalis (R10) [3]?
**A.** 16 mm

**Q.** And the zone of inhibition at 5 µg/mL [4]?
**A.** 19 mm

**Q.** And the zone of inhibition at 5 µg/mL [5]?
**A.** 21 mm

**Q.** What about the zone of inhibition at 5 µg/mL [6] of the same compound?
**A.** 27 mm

**Q.** And the zone of inhibition at 5 µg/mL [7]?
**A.** 0 mm

**Q.** Which results are given for `C[C@@H]1CC[C@H]2[C@@H](C)C(=O)O[C@@H]3O[C@@]4(C)CC[C@@H]1[C@]32OO4` [artemisinin]?
**A.** IC50 [8]: 17.3 nM; IC50 (P. falciparum strain Dd2): 20.4 nM

**Q.** Which results are given for `CCN(CC)CCCC(C)Nc1ccnc2cc(Cl)ccc12` (stereo not shown) [chloroquine]?
**A.** IC50 (P. falciparum NF54; NF54, 24 h, read-out: IC50 24 h): 8.3 ± 2.1 nM; IC50 (P. falciparum NF54; NF54, 48 h, read-out: IC50 48 h): 7.5 ± 0.9 nM; IC50 (P. falciparum NF54; NF54, 72 h, read-out: IC50 72 h): 7.4 ± 1.1 nM; IC50 [8]: 8.6 nM; Kd [9]: 1300 nM; DV50 (dissociation voltage at 50%) of haem adduct (haem; ESI-CID, 20 V to 400 V): 201 V; Bottom plateau (adduct remaining at 400 V) (haem; fragmentor voltage 400 V): 0%; IC50 (P. falciparum strain Dd2): 90.2 nM

**Q.** For `CN(C)c1ccc2nc3ccc(=[N+](C)C)cc-3sc2c1` [methylene blue, reference compound], which IC50 [10] is on record?
**A.** 2.6 ± 1.2 nM
